Tests used:
[1] = biological target: T1, Recombinant NAMPT protein (Homo sapiens, UniProt P43490); assay: NAMPT enzyme inhibition assay (BPS Bioscience NAMPT Inhibitor Screening Assay Kit); assay type: biochemical; conditions: 30 min pre-incubation, 2 h at 30° C., fluorescence
T1 construct: purchased BPS bioscience #7176-1
Method: Recombinant NAMPT protein was added to each well of a black 96-well plate, and dilution buffer was added to a blank well instead of NAMPT protein. A 5× concentrated compound solution was added and pre-incubated at room temperature (approximately 22° C.) for 30 minutes before the start of the reaction so that the compound and protein might bind before the enzyme reaction. At this time, the concentration of NAMPT protein was adjusted and used according to the enzyme activity of each protein lot within the final concentration range of 4-10 ng/μl, and the test compound was serially diluted at a ratio of 1:3 from 1000 nM to 1 nM, and experiments were conducted with n=2 for about seven concentrations. […] The NAMPT enzyme activity (%) was calculated by subtracting the measurement value of the blank well without NAMPT protein from the measurement value of all wells, and then taking the measurement value of the control well without the compound as 100%.

[2] = test system: HCT-116 cell lines; assay: Cellular NAD measurement assay (NAD/NADH-Glo); assay type: cell-based; conditions: Homo sapiens; HCT-116, 24 hours treatment, intracellular NAD+/NADH level
Method: With regard to HCT-116 cell lines, the decrease in intracellular NAD+ and NADH levels due to the inhibition of NAMPT enzyme activity by compounds was evaluated using NAD/NADH-Glo™ Assay (Promega, G9072) from Promega. The cells were incubated using DMEM (Gibco, 11995-065) medium containing 10% FBS. The HCT-116 cells were incubated for 24 hours after being distributed at a density of 2,500 cells per well in a 96-well plate, and were treated with the drugs using serum-free DMEM. First, the compounds were dissolved in 100% dimethyl sulfoxide (DMSO), and then diluted in the culture medium so that the final concentration of DMSO might reach 0.5%, and treated with the drugs. The final concentration range of the compounds was 0.1 nM to 100 nM. After that, they were further incubated for 24 hours under conditions of 37° C. and CO2 5%. To conduct the NAD/NADH-Glo™ Assay, the culture medium of drug-treated cells was removed, 50 μL of DPBS was treated per well, and left at room temperature for five minutes. The required amount of NAD/NADH-Glo™ Detection Reagent (Reconstituted Luciferin Detection Reagent 1 mL, Reductase 5 μL, Reductase Substrate 5 μL, NAD Cycling Enzyme 5 μL, NAD Cycling Substrate 25 μL) was prepared according to the manufacturer's manual and treated in an amount of 50 μL per well. After incubating for two minutes at 400 rpm in a plate shaker for cell lysis, the cells were incubated for 30 minutes at room temperature, and luminescence was measured. NAD+/NADH levels were calculated by subtracting the measurement value of the blank well without cells from the measurement value of all wells and taking the 0.5% DMSO-treated control as 100%.

[3] = test system: HCT-116 (colorectal cancer); assay: Tumor cytotoxicity assay (MTT), HCT-116; assay type: cell-based; conditions: Homo sapiens, HCT-116, 72 hours
Method: (§1) First, the compounds were prepared in 100% dimethyl sulfoxide (DMSO) at concentrations of 0.02 μM to 200 μM, and then diluted in the culture medium so that the final concentration of DMSO might reach 0.5%, and treated with the drugs. The final concentration range of the compounds was 0.1 nM to 1000 nM. After that, they were further incubated for 72 hours under conditions of 37° C. and CO2 5%. […] The cell viability (%) was relatively determined by subtracting the reference 650 nm optical density (O.D.) from the 570 nm O.D., and the 0.5% DMSO-treated control was set as 100% as the standard.

[4] = test system: NCI-N87 (gastric cancer); assay: Tumor cytotoxicity assay (MTT), NCI-N87; assay type: cell-based; conditions: Homo sapiens, NCI-N87, 72 hours
Method: as §1

T1 sequence (P43490 whole entry): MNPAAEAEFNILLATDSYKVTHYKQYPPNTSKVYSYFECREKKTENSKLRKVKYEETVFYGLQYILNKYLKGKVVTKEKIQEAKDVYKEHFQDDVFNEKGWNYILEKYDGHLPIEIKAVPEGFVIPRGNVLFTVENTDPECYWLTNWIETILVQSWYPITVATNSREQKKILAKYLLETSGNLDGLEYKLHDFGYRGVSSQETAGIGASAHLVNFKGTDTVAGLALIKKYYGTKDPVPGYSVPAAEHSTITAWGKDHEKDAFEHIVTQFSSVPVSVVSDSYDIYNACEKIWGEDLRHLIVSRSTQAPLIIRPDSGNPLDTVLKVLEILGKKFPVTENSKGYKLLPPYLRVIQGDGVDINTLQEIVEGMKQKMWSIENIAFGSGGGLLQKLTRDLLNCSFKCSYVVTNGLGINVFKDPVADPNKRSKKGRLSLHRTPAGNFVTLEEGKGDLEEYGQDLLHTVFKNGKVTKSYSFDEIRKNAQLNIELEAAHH

SMILES | IC50 [1] [nM] | IC50 [2] [nM] | CC50 [3] [nM] | CC50 [4] [nM]
O=C(NCCc1cccnc1)Nc1ccc(-c2ccncc2)c(C#Cc2ccc(C(=O)NCCN3CCNCC3)cc2)c1 [Compound 47] | < 500 | 10 to 1000 | < 30 | 30 to 100
O=C(NCc1ccn2ccnc2c1)Nc1ccc(-c2ccncc2)c(C#Cc2ccc(F)cc2)c1 [Compound 4, 1-(3-((4-fluorophenyl)ethynyl)-4-(pyridin-4-yl)phenyl)-3-(imidazo[1,2-a]pyridin-7-ylmethyl)urea] | < 500 | ≤ 10 | < 30 | < 30
O=C(NCCc1ccc2ocnc2c1)Nc1ccc(-c2ccncc2)c(C#Cc2ccc(F)cc2)c1 [Compound 11] | > 1000 |  |  | 
O=C(NCCc1cccnc1)Nc1ccc(-c2ccncc2)c(C#Cc2ccc(C(=O)NCCN3CCC4(CCNC4)CC3)cc2)c1 [Compound 35] | < 500 |  | 30 to 100 | 30 to 100
O=C(NCCc1cccc(O)c1)Nc1ccc(-c2ccncc2)c(C#Cc2ccc(F)cc2)c1 [Compound 5, 1-(3-((4-fluorophenyl)ethynyl)-4-(pyridin-4-yl)phenyl)-3-(3-hydroxyphenethyl)urea] | > 1000 |  |  | 
O=C(NCCc1cccnc1)Nc1ccc(-c2ccncc2)c(C#Cc2ccc(C(=O)NCCN3CCCCC3)cc2)c1 [Compound 7, N-(2-(piperidin-1-yl)ethyl)-4-((5-(3-(2-(pyridin-3-yl)ethyl)ureido)-2-(pyridin-4-yl)phenyl)ethynyl)benzamide] | < 500 |  | < 30 | 
O=C(NCCc1cccnc1)Nc1ccc(-c2ccc(C(=O)N3CCC(F)(F)CC3)cc2)c(C#Cc2ccc(F)cc2)c1 [Compound 2, 1-(4′-(4,4-difluoropiperidine-1-carbonyl)-2-((4-fluorophenyl)ethynyl)-[1,1′-biphenyl]-4-yl)-3-(2-(pyridin-3-yl)ethyl)urea] | < 500 |  |  | 
Cn1ccc(CS(=O)(=O)c2ccc(NC(=O)NCCc3cccnc3)cc2C#Cc2ccc(F)cc2)n1 [Compound 69] | < 500 |  |  | 
O=C(NCCc1cccnc1)Nc1ccc(-c2ccc3cnccc3c2)c(C#Cc2ccc(F)cc2)c1 [Compound 57] | < 500 |  |  | 
Cc1nc2cc(-c3ccc(NC(=O)NCc4ccn5ccnc5c4)cc3C#Cc3ccc(F)cc3)ccc2c(=O)n1CCN [Compound 188] | < 500 |  | < 30 | < 30
NC1CCN(C(=O)c2cccc(-c3ccc(NC(=O)NCCc4cccnc4)cc3C#Cc3ccc(C(=O)NCCN4CCCCC4)cc3)c2)C1 (stereo not drawn) [Compound 43] | > 1000 |  |  | 
Nc1cccc(C#Cc2cc(NC(=O)NCCc3cccnc3)ccc2-c2ccncc2)c1 [Compound 139] | < 500 |  |  | 
CC(=O)Nc1ccc(C#Cc2cc(NC(=O)NCCc3cccnc3)ccc2-c2ccncc2)cc1 [Compound 126, N-(4-((5-(3-(2-(pyridin-3-yl)ethyl)ureido)-2-(pyridin-4-yl)phenyl)ethynyl)phenyl)acetamide] | < 500 |  |  | < 30
NC1CCCN(c2ccc(NC(=O)NCCc3cccnc3)cc2C#Cc2ccc(C(=O)NCCN3CCCCC3)cc2)C1 (stereo not drawn) [Compound 184] | 500 to 1000 |  |  | 
O=C(NCCc1cccnc1)Nc1ccc(-c2ccncc2)c(C#Cc2ccc(F)cc2)c1 [Compound 1, 1-(3-((4-fluorophenyl)ethynyl)-4-(pyridin-4-yl)phenyl)-3-(2-(pyridin-3-yl)ethyl)urea] | < 500 | 10 to 1000 | 30 to 100 | 30 to 100
Nc1cccc(C(=O)Nc2ccc(NC(=O)NCCc3cccnc3)cc2C#Cc2ccc(F)cc2)c1 [Compound 177] | < 500 |  |  | 
O=C(NCCc1cccnc1)Nc1ccc(C(=O)Nc2ccccc2)c(C#Cc2ccc(C(=O)NCCN3CCCCC3)cc2)c1 [Compound 95] | < 500 |  |  | 
O=C(NCCCc1cn[nH]c1)Nc1ccc(-c2ccncc2)c(C#Cc2ccc(F)cc2)c1 [Compound 110] | < 500 |  |  | 

SMILES | IC50 [1] [nM] | IC50 [2] [nM] | CC50 [3] [nM] | CC50 [4] [nM]
NC1CCN(C(=O)c2ccc(C#Cc3cc(NC(=O)NCCc4cccnc4)ccc3-c3ccncc3)cc2)CC1 [Compound 65, 1-(3-((4-(4-aminopiperidin-1-carbonyl)phenyl)ethynyl)-4-(pyridin-4-yl)phenyl)-3-(2-(pyridin-3-yl)ethyl)urea] | < 500 |  | 30 to 100 | 
Nc1ccc(CCNC(=O)Nc2ccc(-c3ccncc3)c(C#Cc3ccc(F)cc3)c2)cn1 [Compound 10] | > 1000 |  |  | 
O=C(NCCc1cccnc1)Nc1ccc(-c2cccc(N3CCOCC3)c2)c(C#Cc2ccc(F)cc2)c1 [Compound 9, 1-(2-((4-fluorophenyl)ethynyl)-3′-morpholino-[1,1′-biphenyl]-4-yl)-3-(2-(pyridin-3-yl)ethyl)urea] | 500 to 1000 |  |  | 
O=C(NCc1cc2cnccc2[nH]1)Nc1ccc(-c2ccncc2)c(C#Cc2ccc(F)cc2)c1 [Compound 6, 1-((1H-pyrrolo[3,2-c]pyridin-2-yl)methyl)-3-(3-((4-fluorophenyl)ethynyl)-4-(pyridin-4-yl)phenyl)urea] | < 500 |  | 30 to 100 | 
O=C(NCCc1ccc([N+](=O)[O-])nc1)Nc1ccc(-c2ccncc2)c(C#Cc2ccc(F)cc2)c1 [Compound 182] | > 1000 |  |  | 
O=C(NCc1ccn2ccnc2c1)Nc1ccc(-c2ccc(N3CCNCC3)cc2)c(C#Cc2ccc(F)cc2)c1 [Compound 185] | 500 to 1000 |  |  | 
NC1CCCN(CCNC(=O)c2ccc(C#Cc3cc(NC(=O)NCCc4cccnc4)ccc3-c3ccncc3)cc2)C1 (stereo not drawn) [Compound 40] | < 500 |  | 30 to 100 | 30 to 100
O=C(NCCn1ccnc1[N+](=O)[O-])Nc1ccc(-c2ccncc2)c(C#Cc2ccc(F)cc2)c1 [Compound 8, 1-(3-((4-fluorophenyl)ethynyl)-4-(pyridin-4-yl)phenyl)-3-(2-(2-nitro-1H-imidazol-1-yl)ethyl)urea] | > 1000 |  |  | 
O=C(NCCc1cccnc1)Nc1ccc(CC(=O)N2CCCCC2)c(C#Cc2ccc(F)cc2)c1 [Compound 74] | < 500 |  |  | < 30
CC(C(=O)NC1CCCCC1)c1ccc(NC(=O)NCCc2cccnc2)cc1C#Cc1ccc(C(=O)NCCN2CCCCC2)cc1 (stereo not drawn) [Compound 89] | < 500 |  | 30 to 100 | 
O=C(NCCc1cccnc1)Nc1ccc(N2CCNCC2)c(C#Cc2ccc(F)cc2)c1 [Compound 118] | > 1000 |  |  | 
Cn1ccc(CS(=O)(=O)c2ccc(NC(=O)NCc3ccn4ccnc4c3)cc2C#Cc2ccc(F)cc2)n1 [Compound 183, 1-(3-((4-fluorophenyl)ethynyl)-4-(((1-methyl-1H-pyrazol-3-yl)methyl)sulfonyl)phenyl)-3-(imidazo[1,2-a]pyridin-7-ylmethyl)urea] | < 500 | ≤ 10 | < 30 | 
CCC(=O)Nc1ccc(NC(=O)NCCc2cccnc2)cc1C#Cc1ccc(F)cc1 [Compound 122] | < 500 |  |  | 
O=C(NCCc1cccnc1)Nc1ccc(NC(=O)c2ccc(F)cc2)c(C#Cc2ccc(F)cc2)c1 [Compound 124] | < 500 |  |  | 
Nc1cccc(C(=O)N2CCN(c3ccc(NC(=O)NCCc4cccnc4)cc3C#Cc3ccc(F)cc3)CC2)c1 [Compound 52] | < 500 |  |  | 
O=C(NCCc1cccnc1)Nc1ccc(-c2ccncc2)c(C#Cc2ccc(C(=O)NC3CCNCC3)cc2)c1 [Compound 66, N-(piperidin-4-yl)-4-((5-(3-(2-(pyridin-3-yl)ethyl)ureido)-2-(pyridin-4-yl)phenyl)ethynyl)benzamide] | < 500 |  | 30 to 100 | < 30
O=C(NCCn1ccnc1)Nc1ccc(-c2ccncc2)c(C#Cc2ccc(F)cc2)c1 [Compound 3, 1-(2-(1H-imidazol-1-yl)ethyl)-3-(3-((4-fluorophenyl)ethynyl)-4-(pyridin-4-yl)phenyl)urea] | 500 to 1000 |  |  | 

From patent publication US20260250262A1, “NEW COMPOUND AND PHARMACEUTICAL COMPOSITION COMPRISING SAME” (SAMJIN PHARMACEUTICAL CO., LTD., priority 2023, published 2026)
